Data on one substance can be found in patent publication US20170037425A1, “METHOD FOR IMPROVING PLANT TRAIT” (SHANGHAI INSTITUTES FOR BIOLOGICAL SCIENCES, CHINESE …, priority 2012, published 2017).

Entries after “also recorded” stand apart in the source; their conditions may differ.

One assay deals with rice. The assay is described as follows: Phenotype of transgenic rice. It counts as in vivo. As for the experimental part: Rice transformation was performed with method described in Liu Qiaoquan, Zhang Jingliu, Wang Zongyang, Hong Mengming and Gu Minghong (1998). A highly efficient transformation system mediated by Argrobacteriun tumefaciens in rice (Oryza sativa L.). Acta Phytophysiologica Sinica 24, 259-271.

A further assay has as its system Rubisco. Briefly: Rubisco activity assay in transgenic Brassica leaves. In kind it is in vivo, Brassica napus L. As for the experimental part: Ribulose-1,5-bisphosphate carboxylase/oxygenase (Rubisco) carboxylase activity assay: Soluble proteins were extracted from fresh leaves with extraction buffer (50 mM Tris-HCl pH 7.8, 1 mM EDTA, 50 mM NaCl, 2 mM β-Mercaptoethanol). The homogenate was centrifuged (12,000 g for 6 min at 4° C.) and the supernatant was used for Rubisco activity assay. Carboxylase activity of Rubisco was measured with ^14C-labelled method as described in (Wang Z Y, Snyder G W, Esau B D, Portis A R, Ogren W L (1992) Species-dependent variation in the interaction of substrate-bound ribulose-1,5-bisphosphate carboxylase/oxygenase (Rubisco) and Rubisco activase. Plant Physiology 100: 1858-1862).

In assay [1] the test system is Brassica. The assay is described as follows: Net photosynthetic rate of transgenic Brassica. It counts as in vivo, Brassica napus L. The settings on record: for net photosynthetic rate, increase compared with wild type: transgenic Brassica. As for the experimental part: Gas exchange was measured using photosynthetic infrared gas analysis system (LI-6400, Li-Cor Inc, Lincoln, Nebr., USA). The net photosynthetic rate (Pn) and stomatal conductance (Gs) was measured. Sunlight and artificial light were used as artificial light sources for measurement. The ambient CO2 during the measurements was controlled at 400 μmol mol^−1. The ambient temperature was controlled at the temperature for plant growth. Six leaves were measured for each line of plant. In addition, for the CO2 response curve of the plant leaf, the light intensity was set at PPFD of 1500 μmol m^−2s^−1 with artificial light source. The Pn under 50-1200 ppm CO2 was measured.

Assay [2] relates to Brassica. Briefly: Millisecond-delayed light emission in transgenic Brassica leaves. In kind it is in vivo, Brassica napus L. The settings on record: white light and green light. As for the experimental part: Measurements of millisecond-delayed light emission were carried out according to the method described in Chen et al., 2010 (Reversible association of ribulose-1,5-bisphosphate carboxylase/oxygenase activate with the thylakoid membrane depends upon the ATP level and pH in rice without heat stress. Journal of Experimental Botany 61: 2939-2950). Leaf samples with same size were treated in dark for same time and millisecond-delayed light emission was measured in situ. The leaf sample was illuminated with light passing through holes arranged on two rotating wheels, so that the measurement can be partitioned into consecutive cycles of 1 ms excitation by light followed by 4.6 ms darkness. The delayed light emission between 2.8 and 3.8 ms after every flash was recorded. The white light source was supplied by a halogen lamp, and the green light source was obtained by passing the white light source through a 530 nm filter.

In assay [3] the test system is etiolated Brassica hypocotyls. The assay is described as follows: Respiration rate and oxygen evolution in etiolated hypocotyls of transgenic Brassica. It counts as in vivo, Brassica napus L. The settings on record: etiolated hypocotyl. As for the experimental part: 5-6 individual hypocotyls (5-6 cm in length) were collected from 1-week-old etiolated Brassica. The roots and cotyledons were detached and the hypocotyls were cut into 1 mm in length after weighing. The hypocotyls were put into the reaction vessel of the Clack-type oxygen electrode. The changes of dissolved oxygen content in solution over measuring time were recorded in dark or under light, respectively. Then 15 mM HgCl2 was added to block the respiration, and the change of dissolved oxygen content in solution was recorded. The difference between the respiration rate under light and in dark, and the oxygen evolution rate when respiration was blocked by HgCl2 was calculated.

The subject of assay [4] is Brassica. The assay is described as follows: Stomatal conductance and intercellular CO2 concentration of transgenic Brassica. In kind it is in vivo, Brassica napus L. As for the experimental part:
Gas exchange was measured using photosynthetic infrared gas analysis system (LI-6400, Li-Cor Inc, Lincoln, Nebr., USA). The net photosynthetic rate (Pn) and stomatal conductance (Gs) was measured. Sunlight and artificial light were used as artificial light sources for measurement. The ambient CO2 during the measurements was controlled at 400 μmol mol^−1. The ambient temperature was controlled at the temperature for plant growth. Six leaves were measured for each line of plant.

A further assay deals with wheat. Briefly: Phenotype of transgenic wheat. It counts as in vivo. As for the experimental part:
Wheat transformation was performed with method described in Supartana P, Shimizu T, Nogawa M, Shioiri H, Nakajima T, Haramoto N, Nozue M, and Kojima M. Development of simple and efficient in Planta transformation method for wheat (Triticum aestivum L.) Using Agrobacterium tumefaciens, Journal of Bioscience and Bioengineering 102, 162-170.

Assay [5] in a line: Electron donation by pre-illuminated LEAT protein (NAD+/NADP+ reduction). It counts as biochemical. As for the experimental part: FIG. 1. The effects of light on NAD^+ or NAPD^+ reduction by YFP.
It was reported that proteins such as GFP can function as electron donor to reduce the oxidized small compounds such as NAD^+, potassium ferricyanide, and some proteins such as cytochrome c, and FAD-containing proteins (Bogdanov A. M. et al, 2009, Nature Chemical Biology. 5:459-461), The invertors used E. coli to express and purify recombinant proteins. […] Quinone reduction under light was analyzed by monitoring the decrease of absorption at 436 nm.

Turning to “mCherry: red fluorescent protein, amino acid sequence SEQ ID NO: 2”, the “plant growth vs WT” value with rice is “grow better than WT; also recorded: improve the growth”. For the same substance, the “seed size and grain yield per plant vs WT” value with rice and with wheat was “increase” in each case. Moreover, the “Rubisco activity and Rubisco activation state” value in the assay on Rubisco is reported as “increased”. Further, in the assay with Brassica [1] (phytotron-grown transgenic Brassica, white light and green light), the “net photosynthesis rate vs WT” value is “significantly increased”. Moreover, in the assay on Brassica [1] (transgenic Brassica in natural field conditions, different light intensities), the “net photosynthesis rate vs WT and empty vector” value is on record as “significantly increased”. In addition, the “net photosynthetic rate, increase compared with wild type” value is 31% in the assay with Brassica [1] (400 μmol m^−2s^−1), 28% with Brassica [1] (800 μmol m^−2s^−1) and 16% with Brassica [1] (1200 μmol m^−2s^−1). Further, the “slow phase of millisecond delay light evolution (ms-DLE) vs WT” value in the assay with Brassica [2] is listed as “higher”. The “net O2 evolution” value in assay [3] (O2 uptake inhibited by HgCl2, under light) was “observed significantly”. Also, the “O2 uptake rate under light vs WT” value in assay [3] (without HgCl2) is recorded as “significant lower”. Besides, the “stomatal conductance (Gs) vs WT” value with Brassica [4] (transgenic Brassica) is “increased”. Further, the “intercellular CO2 concentration (Ci)” value with Brassica [4] (transgenic Brassica leaves) is reported as “did not lead to the decrease”. Besides, in the assay with wheat, the “seed size and panicle size vs WT” value is “significantly increased”. For the same substance, the “function as electron donor under light” value in assay [5] is on record as “cannot continuously provide electrons under light”.
